From ChEMBL document CHEMBL1150916, “Isolation of 2-(3'-bromo-4'-hydroxyphenol)ethanamine from the New Zealand ascidian Cnemidocarpa bicornuta” (J Nat Prod, 1998) come the findings set out here.

The subject of one test is P388. Nature of the test: Cytotoxicity against mouse P388 cells. Type of test: functional, cell-based.
The subject of the next test is Pseudomonas aeruginosa. The test can be described thus: Antibacterial activity against Pseudomonas aeruginosa. Type of test: functional, organism-based.
A further test deals with Candida albicans. The test can be described thus: Antifungal activity against Candida albicans. Format: functional, organism-based.
A further test deals with Bacillus subtilis. Nature of the test: Antibacterial activity against Bacillus subtilis. Type of test: functional, organism-based.
The test system of another test is Escherichia coli. The test can be described thus: Antibacterial activity against Escherichia coli. Format: functional, organism-based.

By IC50 is commonly meant the concentration that inhibits the measured activity by half.

Molecules are shown by their SMILES. Active and inactive are the calls of the source. The rule behind the calls is not given here.

For the compound `NCCc1ccc(O)c(Br)c1`, in the test on P388, the IC50 amounted to 46 µM. The outcome in the test on Pseudomonas aeruginosa, in the test with Candida albicans, in the test with Bacillus subtilis and with Escherichia coli was inactive.

On to `Cn1c(=N)c2nc[nH]c2n(C)c1=O`, for which the outcome in the test on P388, with Pseudomonas aeruginosa, with Candida albicans, in the test with Bacillus subtilis and in the test on Escherichia coli was inactive.
